Measured values: patent publication US20160046579A1, “THERAPEUTIC COMPOUNDS AND COMPOSITIONS” (AGIOS PHARMACEUTICALS, INC., priority 2013, published 2016)

Experiments:
wt PKR [1] = molecular target: T1, wt PKR (Homo sapiens, UniProt P30613); test: PKR Mutant Assay, dose response (AC50), wild type PKR enzyme; assay type: biochemical
Protocol: (§1) • PKR or PKR mutant enzyme solution was diluted in assay buffer. • 2 μL of test compound was added into wells first, and then 180 μL reaction mix was added. • Reactions mixture with test compound was assembled except for ADP, and plates were stored for 60 minutes at room temperature. • 20 uL ADP was added to start reaction at room temperature and reaction progress was measured as changes in absorbance at 340 nm wavelength at room temperature.
(§2) Test Compound Preparation: • Test compound stock was made at 100× concentration in 100% DMSO (10 mM) • 1 to 3 dilutions were made for 11 points (i.e. 50 μl of first concentration added to 100 μl 100% DMSO to yield 3.33 mM, 50 μl of this added to 100 μl DMSO to yield 1.11 mM, and so forth) • 1 to 100 dilution into assay (2 μl in 200 μl) yielded starting concentration of 100 μM, decreasing 3 fold for 11 points.

PKR R532W = PKR R532W (Homo sapiens, UniProt P30613, R532W); test: PKR Mutant Assay, dose response (AC50), PKR R532W; assay type: biochemical; details: PKR R532W mutant enzyme
Protocol: as §1, §2

PKR R510Q = PKR R510Q (Homo sapiens, UniProt P30613, R510Q); test: PKR Mutant Assay, dose response (AC50), PKR R510Q; assay type: biochemical; details: PKR R510Q mutant enzyme
Protocol: as §1, §2

wt PKR [2] = molecular target: T1, wt PKR; test: wt PKR cell based assay

Sequence of PKR R532W (P30613 whole entry R532W): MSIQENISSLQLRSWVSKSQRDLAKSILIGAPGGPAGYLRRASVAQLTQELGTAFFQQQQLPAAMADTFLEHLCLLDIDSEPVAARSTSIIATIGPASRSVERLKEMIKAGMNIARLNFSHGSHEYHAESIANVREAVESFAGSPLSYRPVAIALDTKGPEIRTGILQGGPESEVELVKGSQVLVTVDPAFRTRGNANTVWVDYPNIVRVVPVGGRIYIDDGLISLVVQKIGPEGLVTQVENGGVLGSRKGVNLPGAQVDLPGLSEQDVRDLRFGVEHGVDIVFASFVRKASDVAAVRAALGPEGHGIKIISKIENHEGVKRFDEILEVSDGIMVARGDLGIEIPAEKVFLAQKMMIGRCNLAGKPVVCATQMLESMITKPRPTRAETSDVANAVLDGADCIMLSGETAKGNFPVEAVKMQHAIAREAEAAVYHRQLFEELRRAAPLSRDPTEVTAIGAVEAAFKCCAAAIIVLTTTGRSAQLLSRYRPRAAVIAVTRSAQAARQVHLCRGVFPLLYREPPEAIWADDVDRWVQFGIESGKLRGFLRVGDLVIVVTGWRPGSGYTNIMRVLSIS
Sequence of PKR R510Q (P30613 whole entry R510Q): as the sequence (P30613 whole entry R532W) above, with R510Q, W532R counted along it
T1 sequence (P30613 whole entry): as the sequence (P30613 whole entry R532W) above, with W532R counted along it

AC50 (wt PKR [1]; wild type PKR enzyme) [µM]	AC50 (PKR R532W) [µM]	AC50 (PKR R510Q) [µM]	AC50 (wt PKR [2]) [µM]	AC50 (wt PKR [1]; wild type PKR, enzymatic assay) [µM]	AC50 (wt PKR [2]; wild type PKR) [µM]	SMILES
0.101 to 1	0.101 to 1	0.101 to 1	0.101 to 1	–	–	CC(F)(F)CCC1(O)CCN(C(=O)c2ccc(NS(=O)(=O)c3cc(F)cc4sc(N)nc34)cc2C#N)CC1 [Compound 491, 2-amino-N-(3-cyano-4-(4-(3,3-difluorobutyl)-4-hydroxypiperidine-1-carbonyl)phenyl)-6-fluorobenzo[d]thiazole-4-sulfonamide]
< 0.1	< 0.1	0.101 to 1	0.101 to 1	–	–	CC(F)(F)CCC1(O)CCN(C(=O)c2ccc(NS(=O)(=O)c3cccc4scnc34)cc2OC(F)F)CC1 [Compound 473, N-(4-(4-(3,3-difluorobutyl)-4-hydroxypiperidine-1-carbonyl)-3-(difluoromethoxy)phenyl)benzo[d]thiazole-4-sulfonamide]
0.101 to 1	0.101 to 1	0.101 to 1	1.01 to 10	–	–	CC(F)(F)CCC1(O)CCN(C(=O)c2ccc(NS(=O)(=O)c3cccc4scnc34)cc2F)CC1 [Compound 469, N-(4-(4-(3,3-difluorobutyl)-4-hydroxypiperidine-1-carbonyl)-3-fluorophenyl)benzo[d]thiazole-4-sulfonamide]
0.101 to 1	0.101 to 1	0.101 to 1	0.101 to 1	–	–	CC(F)(F)CCC1(O)CCN(C(=O)c2ccc(NS(=O)(=O)c3cccc4nccnc34)cc2C#N)CC1 [Compound 492]
1.01 to 10	> 10	> 10	–	–	–	CS(=O)(=O)CCC1(O)CCN(C(=O)c2ccc(NS(=O)(=O)c3cccc4scnc34)cc2)CC1 [Compound 466]
1.01 to 10	0.101 to 1	> 10	–	–	–	O=C(c1ccc(NS(=O)(=O)c2cccc3scnc23)cc1)N1CCC(O)(c2ncc(Cl)s2)CC1 [Compound 509]
> 10	> 10	> 10	–	–	–	CC(C)CC1(O)CCN(C(=O)c2ccc(NS(=O)(=O)c3cccc4ncc(O)nc34)cc2)CC1 [Compound 460]
> 10	> 10	–	–	–	–	CC(C)(O)CCCC1(O)CCN(C(=O)c2ccc(NS(=O)(=O)c3cccc4nccnc34)cc2)CC1 [Compound 475]
1.01 to 10	0.101 to 1	1.01 to 10	–	–	–	O=C(c1ccc(NS(=O)(=O)c2cccc3scnc23)cc1)N1CCC(O)(c2nc(Cl)cs2)CC1 [Compound 481]
0.101 to 1	–	–	–	–	–	CC(C)CC1(O)CCN(C(=O)c2ccc(NS(=O)(=O)c3cccc4cncnc34)cc2)CC1 [Compound 441]
1.01 to 10	1.01 to 10	> 10	–	–	–	Nc1nc(CC2(O)CCN(C(=O)c3ccc(NS(=O)(=O)c4cccc5scnc45)cc3)CC2)cs1 [Compound 485]
< 0.1	–	–	0.101 to 1	–	–	O=C(c1ccc(NS(=O)(=O)c2cccc3scnc23)cc1)N1CCC(O)(Cc2nc(Cl)cs2)CC1 [Compound 489, N-(4-(4-((4-chlorothiazol-2-yl)methyl)-4-hydroxypiperidine-1-carbonyl)phenyl)benzo[d]thiazole-4-sulfonamide]
0.101 to 1	0.101 to 1	1.01 to 10	–	–	–	CS(=O)(=O)CC1(O)CCN(C(=O)c2ccc(NS(=O)(=O)c3cccc4scnc34)cc2)CC1 [Compound 472]
0.101 to 1	0.101 to 1	1.01 to 10	–	–	–	CC(F)(F)CCC1(O)CCN(C(=O)c2ccc(NS(=O)(=O)c3cccc4scnc34)cc2C#N)CC1 [Compound 477, N-(3-cyano-4-(4-(3,3-difluorobutyl)-4-hydroxypiperidine-1-carbonyl)phenyl)benzo[d]thiazole-4-sulfonamide]
–	–	–	–	< 0.1	0.101 to 1	Cc1cc(C2(O)CCN(C(=O)c3ccc(NS(=O)(=O)c4cccc5scnc45)cc3)CC2)sn1 [Compound 528, N-(4-(4-hydroxy-4-(3-methylisothiazol-5-yl)piperidine-1-carbonyl)phenyl)benzo[d]thiazole-4-sulfonamide]
1.01 to 10	1.01 to 10	> 10	–	–	–	CCn1cc(CC2(O)CCN(C(=O)c3ccc(NS(=O)(=O)c4cccc5scnc45)cc3)CC2)cn1 [Compound 506]
1.01 to 10	1.01 to 10	> 10	–	–	–	CCS(=O)(=O)CC1(O)CCN(C(=O)c2ccc(NS(=O)(=O)c3cccc4scnc34)cc2)CC1 [Compound 484]
–	–	0.101 to 1	–	–	–	O=C(c1ccc(NS(=O)(=O)c2cccc3nccnc23)cc1)N1CCC(O)(Cc2nc(Cl)cs2)CC1 [Compound 494]
1.01 to 10	1.01 to 10	–	–	–	–	CC(C)(O)CCCC1(O)CCN(C(=O)c2ccc(NS(=O)(=O)c3cccc4scnc34)cc2)CC1 [Compound 476]
1.01 to 10	1.01 to 10	> 10	–	–	–	CS(=O)(=O)CCC1(O)CCN(C(=O)c2ccc(NS(=O)(=O)c3cccc4nccnc34)cc2)CC1 [Compound 470]

More lines, now with the values behind:

SMILES	AC50 (wt PKR [1]; wild type PKR enzyme) [µM]	AC50 (PKR R532W) [µM]	AC50 (PKR R510Q) [µM]	AC50 (wt PKR [2]) [µM]	AC50 (wt PKR [1]; wild type PKR, enzymatic assay) [µM]	AC50 (wt PKR [2]; wild type PKR) [µM]
CC1(O)CCC(C2(O)CCN(C(=O)c3ccc(NS(=O)(=O)c4cccc5nccnc45)cc3)CC2)CC1 (stereo not drawn) [Compound 505]	0.101 to 1	0.101 to 1	0.101 to 1	–	–	–
O=C(c1ccc(NS(=O)(=O)c2cccc3scnc23)cc1)N1CCC(O)(c2ccns2)CC1 [Compound 515, N-(4-(4-hydroxy-4-(isothiazol-5-yl)piperidine-1-carbonyl)phenyl)benzo[d]thiazole-4-sulfonamide]	–	–	0.101 to 1	0.101 to 1	–	–
CN1CCC(C2(CO)CCN(C(=O)c3ccc(NS(=O)(=O)c4cccc5scnc45)cc3)CC2)C1=O (stereo not drawn) [Compound 487]	1.01 to 10	1.01 to 10	1.01 to 10	–	–	–
CC(C)CC1(OC(=O)OCOP(=O)(O)O)CCN(C(=O)c2ccc(NS(=O)(=O)c3cccc4nccnc34)cc2)CC1 [Compound 527, 4-isobutyl-1-(4-(quinoxaline-5-sulfonamido)benzoyl)piperidin-4-yl phosphonooxymethyl carbonate]	0.101 to 1	0.101 to 1	0.101 to 1	< 0.1	–	–
Cn1ccc(C2(O)CCN(C(=O)c3ccc(NS(=O)(=O)c4cccc5scnc45)cc3)CC2)n1 [Compound 450]	> 10	> 10	> 10	–	–	–
Cc1nscc1CC1(O)CCN(C(=O)c2ccc(NS(=O)(=O)c3cccc4nccnc34)cc2)CC1 [Compound 497, N-(4-(4-hydroxy-4-((3-methylisothiazol-4-yl)methyl)piperidine-1-carbonyl)phenyl)quinoxaline-5-sulfonamide]	< 0.1	< 0.1	< 0.1	< 0.1	–	–
O=C1NCCC1CC1(O)CCN(C(=O)c2ccc(NS(=O)(=O)c3cccc4nccnc34)cc2)CC1 (stereo not drawn) [Compound 496]	1.01 to 10	1.01 to 10	> 10	–	–	–
CCS(=O)(=O)CC1(O)CCN(C(=O)c2ccc(NS(=O)(=O)c3cccc4nccnc34)cc2)CC1 [Compound 490]	1.01 to 10	1.01 to 10	> 10	–	–	–
CC(C)CC1(OP(=O)(O)O)CCN(C(=O)c2ccc(NS(=O)(=O)c3cccc4scnc34)cc2)CC1 [Compound 524]	> 10	> 10	–	1.01 to 10	–	–
CC1(O)CCC(C2(O)CCN(C(=O)c3ccc(NS(=O)(=O)c4cccc5scnc45)cc3)CC2)CC1 (stereo not drawn) [Compound 504]	0.101 to 1	1.01 to 10	1.01 to 10	–	–	–
O=C(c1ccc(NS(=O)(=O)c2cccc3nccnc23)cc1)N1CCC(O)(c2sncc2Cl)CC1 [Compound 516, N-(4-(4-(4-chloroisothiazol-5-yl)-4-hydroxypiperidine-1-carbonyl)phenyl)quinoxaline-5-sulfonamide]	–	–	0.101 to 1	< 0.1	–	–
CC(C)CC1(OP(=O)(O)O)CCN(C(=O)c2ccc(NS(=O)(=O)c3cccc4nccnc34)cc2)CC1 [Compound 525]	–	–	> 10	0.101 to 1	–	–
CC(C)CC1(O)CCN(C(=O)c2ccc(NS(=O)(=O)c3cccc4[nH]cnc34)cc2)CC1 [Compound 449]	> 10	> 10	> 10	–	–	–
Cn1ccc(CC2(O)CCN(C(=O)c3ccc(NS(=O)(=O)c4cccc5nccnc45)cc3)CC2)n1 [Compound 507]	0.101 to 1	0.101 to 1	> 10	–	–	–
O=C(c1ccc(NS(=O)(=O)c2cccc3nccnc23)cc1)N1CCC(O)(c2ccns2)CC1 [Compound 517]	–	–	0.101 to 1	0.101 to 1	–	–
O=C1NCCC1CC1(O)CCN(C(=O)c2ccc(NS(=O)(=O)c3cccc4scnc34)cc2)CC1 (stereo not drawn) [Compound 495]	1.01 to 10	1.01 to 10	> 10	–	–	–
CS(=O)(=O)CC1(O)CCN(C(=O)c2ccc(NS(=O)(=O)c3cccc4nccnc34)cc2)CC1 [Compound 474]	0.101 to 1	0.101 to 1	1.01 to 10	–	–	–
CN1CCC(CC2(O)CCN(C(=O)c3ccc(NS(=O)(=O)c4cccc5scnc45)cc3)CC2)C1=O (stereo not drawn) [Compound 488]	1.01 to 10	0.101 to 1	> 10	–	–	–
CC(C)CC1(O)CCN(C(=O)c2ccc(NS(=O)(=O)c3cnc(O)c4cccnc34)cc2)CC1 [Compound 416]	–	–	> 10	–	–	–
CCn1cc(CC2(O)CCN(C(=O)c3ccc(NS(=O)(=O)c4cccc5nccnc45)cc3)CC2)cn1 [Compound 503]	0.101 to 1	0.101 to 1	> 10	–	–	–
CC(C)CC1(N)CCN(C(=O)c2ccc(NS(=O)(=O)c3cccc4scnc34)cc2)CC1 [Compound 529]	–	0.101 to 1	0.101 to 1	–	–	–
